# Results as given in the NIST ThermoML archive (doi:10.1016/j.jct.2006.08.009).
# Numbers after ± are expanded uncertainties.
# Assay: mn = molality of the nth substance listed, in mol/kg
# Conditions: 350 kPa, Liquid; for apparent molar heat capacity: Extra sensitive DSC
smiles,measurement,setting,value
OCC(O)CO [glycerol] + O,apparent molar heat capacity,"278.15 K, m1 = 0.02",210 ± 86 J/K/mol
same,apparent molar heat capacity,"278.15 K, m1 = 0.05",208 ± 35 J/K/mol
same,apparent molar heat capacity,"278.15 K, m1 = 0.1",208.3 ± 18 J/K/mol
same,apparent molar heat capacity,"278.15 K, m1 = 0.2501",206.7 ± 7.7 J/K/mol
same,apparent molar heat capacity,"278.15 K, m1 = 0.5002",206 ± 4.8 J/K/mol
same,apparent molar heat capacity,"278.15 K, m1 = 1.001",203.2 ± 3.6 J/K/mol
same,apparent molar heat capacity,"278.15 K, m1 = 2",200 ± 3.1 J/K/mol
same,apparent molar heat capacity,"278.15 K, m1 = 3.003",192.1 ± 3.1 J/K/mol
same,apparent molar heat capacity,"278.15 K, m1 = 4.999",196.4 ± 2.9 J/K/mol
same,mass density,"278.15 K, m1 = 0.02",1000.56 ± 0.17 kg/m3
same,mass density,"278.15 K, m1 = 0.05",1001.19 ± 0.17 kg/m3
same,mass density,"278.15 K, m1 = 0.1",1002.32 ± 0.17 kg/m3
same,mass density,"278.15 K, m1 = 0.2501",1005.96 ± 0.18 kg/m3
same,mass density,"278.15 K, m1 = 0.5002",1011.28 ± 0.19 kg/m3
same,mass density,"278.15 K, m1 = 1.001",1021.37 ± 0.21 kg/m3
same,mass density,"278.15 K, m1 = 2",1040.06 ± 0.25 kg/m3
same,mass density,"278.15 K, m1 = 3.003",1056.11 ± 0.28 kg/m3
same,mass density,"278.15 K, m1 = 4.999",1082.51 ± 0.33 kg/m3
same,apparent molar heat capacity,"283.15 K, m1 = 0.02",220 ± 80 J/K/mol
same,apparent molar heat capacity,"283.15 K, m1 = 0.05",219 ± 33 J/K/mol
same,apparent molar heat capacity,"283.15 K, m1 = 0.1",219.7 ± 17 J/K/mol
same,apparent molar heat capacity,"283.15 K, m1 = 0.2501",218.3 ± 7.2 J/K/mol
same,apparent molar heat capacity,"283.15 K, m1 = 0.5002",217.4 ± 4.2 J/K/mol
same,apparent molar heat capacity,"283.15 K, m1 = 1.001",215.1 ± 3 J/K/mol
same,apparent molar heat capacity,"283.15 K, m1 = 2",212.1 ± 2.5 J/K/mol
same,apparent molar heat capacity,"283.15 K, m1 = 3.003",206.8 ± 2.3 J/K/mol
same,apparent molar heat capacity,"283.15 K, m1 = 4.999",207.4 ± 2.1 J/K/mol
same,mass density,"283.15 K, m1 = 0.02",1000.32 ± 0.17 kg/m3
same,mass density,"283.15 K, m1 = 0.05",1000.93 ± 0.17 kg/m3
same,mass density,"283.15 K, m1 = 0.1",1002.05 ± 0.17 kg/m3
same,mass density,"283.15 K, m1 = 0.2501",1005.34 ± 0.18 kg/m3
same,mass density,"283.15 K, m1 = 0.5002",1010.56 ± 0.19 kg/m3
same,mass density,"283.15 K, m1 = 1.001",1020.54 ± 0.21 kg/m3
same,mass density,"283.15 K, m1 = 2",1038.67 ± 0.24 kg/m3
same,mass density,"283.15 K, m1 = 3.003",1054.65 ± 0.28 kg/m3
same,mass density,"283.15 K, m1 = 4.999",1080.68 ± 0.33 kg/m3
same,apparent molar heat capacity,"288.15 K, m1 = 0.02",229 ± 77 J/K/mol
same,apparent molar heat capacity,"288.15 K, m1 = 0.05",227 ± 32 J/K/mol
same,apparent molar heat capacity,"288.15 K, m1 = 0.1",227.7 ± 16 J/K/mol
same,apparent molar heat capacity,"288.15 K, m1 = 0.2501",226.4 ± 6.9 J/K/mol
same,apparent molar heat capacity,"288.15 K, m1 = 0.5002",225.6 ± 4.1 J/K/mol
same,apparent molar heat capacity,"288.15 K, m1 = 1.001",223.5 ± 2.9 J/K/mol
same,apparent molar heat capacity,"288.15 K, m1 = 2",220.6 ± 2.4 J/K/mol
same,apparent molar heat capacity,"288.15 K, m1 = 3.003",215.7 ± 2.1 J/K/mol
same,apparent molar heat capacity,"288.15 K, m1 = 4.999",215.28 ± 1.9 J/K/mol
same,mass density,"288.15 K, m1 = 0.02",999.7 ± 0.17 kg/m3
same,mass density,"288.15 K, m1 = 0.05",1000.3 ± 0.16 kg/m3
same,mass density,"288.15 K, m1 = 0.1",1001.41 ± 0.17 kg/m3
same,mass density,"288.15 K, m1 = 0.2501",1004.63 ± 0.17 kg/m3
same,mass density,"288.15 K, m1 = 0.5002",1009.79 ± 0.18 kg/m3
same,mass density,"288.15 K, m1 = 1.001",1019.64 ± 0.2 kg/m3
same,mass density,"288.15 K, m1 = 2",1037.48 ± 0.24 kg/m3
same,mass density,"288.15 K, m1 = 3.003",1053.13 ± 0.27 kg/m3
same,mass density,"288.15 K, m1 = 4.999",1078.92 ± 0.33 kg/m3
same,apparent molar heat capacity,"293.15 K, m1 = 0.02",235 ± 72 J/K/mol
same,apparent molar heat capacity,"293.15 K, m1 = 0.05",233 ± 30 J/K/mol
same,apparent molar heat capacity,"293.15 K, m1 = 0.1",234 ± 15 J/K/mol
same,apparent molar heat capacity,"293.15 K, m1 = 0.2501",233 ± 6.5 J/K/mol
same,apparent molar heat capacity,"293.15 K, m1 = 0.5002",232.3 ± 3.9 J/K/mol
same,apparent molar heat capacity,"293.15 K, m1 = 1.001",230.4 ± 2.7 J/K/mol
same,apparent molar heat capacity,"293.15 K, m1 = 2",227.5 ± 2.2 J/K/mol
same,apparent molar heat capacity,"293.15 K, m1 = 3.003",222.75 ± 2 J/K/mol
same,apparent molar heat capacity,"293.15 K, m1 = 4.999",221.83 ± 1.8 J/K/mol
same,apparent molar heat capacity,"298.15 K, m1 = 0.02",240 ± 68 J/K/mol
same,apparent molar heat capacity,"298.15 K, m1 = 0.05",239 ± 26 J/K/mol
same,apparent molar heat capacity,"298.15 K, m1 = 0.1",239.7 ± 14 J/K/mol
same,apparent molar heat capacity,"298.15 K, m1 = 0.2501",238.6 ± 6.2 J/K/mol
same,apparent molar heat capacity,"298.15 K, m1 = 0.5002",238 ± 3.7 J/K/mol
same,apparent molar heat capacity,"298.15 K, m1 = 1.001",236.1 ± 2.7 J/K/mol
same,apparent molar heat capacity,"298.15 K, m1 = 2",233.27 ± 2.1 J/K/mol
same,apparent molar heat capacity,"298.15 K, m1 = 3.003",228.47 ± 2 J/K/mol
same,apparent molar heat capacity,"298.15 K, m1 = 4.999",227.35 ± 1.7 J/K/mol
same,mass density,"298.15 K, m1 = 0.02",997.59 ± 0.17 kg/m3
same,mass density,"298.15 K, m1 = 0.05",998.2 ± 0.17 kg/m3
same,mass density,"298.15 K, m1 = 0.1",999.29 ± 0.17 kg/m3
same,mass density,"298.15 K, m1 = 0.2501",1002.43 ± 0.17 kg/m3
same,mass density,"298.15 K, m1 = 0.5002",1007.48 ± 0.18 kg/m3
same,mass density,"298.15 K, m1 = 1.001",1017.07 ± 0.2 kg/m3
same,mass density,"298.15 K, m1 = 2",1034.46 ± 0.24 kg/m3
same,mass density,"298.15 K, m1 = 3.003",1049.73 ± 0.27 kg/m3
same,mass density,"298.15 K, m1 = 4.999",1074.96 ± 0.32 kg/m3
same,apparent molar heat capacity,"303.15 K, m1 = 0.02",245 ± 63 J/K/mol
same,apparent molar heat capacity,"303.15 K, m1 = 0.05",244 ± 25 J/K/mol
same,apparent molar heat capacity,"303.15 K, m1 = 0.1",244.7 ± 13 J/K/mol
same,apparent molar heat capacity,"303.15 K, m1 = 0.2501",243.6 ± 5.9 J/K/mol
same,apparent molar heat capacity,"303.15 K, m1 = 0.5002",243 ± 3.6 J/K/mol
same,apparent molar heat capacity,"303.15 K, m1 = 1.001",241.1 ± 2.5 J/K/mol
same,apparent molar heat capacity,"303.15 K, m1 = 2",238.33 ± 2.1 J/K/mol
same,apparent molar heat capacity,"303.15 K, m1 = 3.003",233.46 ± 1.9 J/K/mol
same,apparent molar heat capacity,"303.15 K, m1 = 4.999",232.27 ± 1.7 J/K/mol
same,apparent molar heat capacity,"308.15 K, m1 = 0.02",249 ± 60 J/K/mol
same,apparent molar heat capacity,"308.15 K, m1 = 0.05",248.4 ± 24 J/K/mol
same,apparent molar heat capacity,"308.15 K, m1 = 0.1",249 ± 12 J/K/mol
same,apparent molar heat capacity,"308.15 K, m1 = 0.2501",247.9 ± 5.5 J/K/mol
same,apparent molar heat capacity,"308.15 K, m1 = 0.5002",247.4 ± 3.4 J/K/mol
same,apparent molar heat capacity,"308.15 K, m1 = 1.001",245.5 ± 2.5 J/K/mol
same,apparent molar heat capacity,"308.15 K, m1 = 2",242.76 ± 2 J/K/mol
same,apparent molar heat capacity,"308.15 K, m1 = 3.003",237.83 ± 1.8 J/K/mol
same,apparent molar heat capacity,"308.15 K, m1 = 4.999",236.6 ± 1.6 J/K/mol
same,mass density,"308.15 K, m1 = 0.02",994.55 ± 0.18 kg/m3
same,mass density,"308.15 K, m1 = 0.05",995.16 ± 0.17 kg/m3
same,mass density,"308.15 K, m1 = 0.1",996.23 ± 0.17 kg/m3
same,mass density,"308.15 K, m1 = 0.2501",999.33 ± 0.17 kg/m3
same,mass density,"308.15 K, m1 = 0.5002",1004.29 ± 0.17 kg/m3
same,mass density,"308.15 K, m1 = 1.001",1013.67 ± 0.19 kg/m3
same,mass density,"308.15 K, m1 = 2",1030.71 ± 0.23 kg/m3
same,mass density,"308.15 K, m1 = 3.003",1045.67 ± 0.26 kg/m3
same,mass density,"308.15 K, m1 = 4.999",1070.41 ± 0.31 kg/m3
same,apparent molar heat capacity,"313.15 K, m1 = 0.02",253 ± 55 J/K/mol
same,apparent molar heat capacity,"313.15 K, m1 = 0.05",252.1 ± 22 J/K/mol
same,apparent molar heat capacity,"313.15 K, m1 = 0.1",252.9 ± 12 J/K/mol
same,apparent molar heat capacity,"313.15 K, m1 = 0.2501",251.9 ± 5.2 J/K/mol
same,apparent molar heat capacity,"313.15 K, m1 = 0.5002",251.3 ± 3.3 J/K/mol
same,apparent molar heat capacity,"313.15 K, m1 = 1.001",249.4 ± 2.4 J/K/mol
same,apparent molar heat capacity,"313.15 K, m1 = 2",246.75 ± 2 J/K/mol
same,apparent molar heat capacity,"313.15 K, m1 = 3.003",241.83 ± 1.8 J/K/mol
same,apparent molar heat capacity,"313.15 K, m1 = 4.999",240.56 ± 1.6 J/K/mol
same,apparent molar heat capacity,"318.15 K, m1 = 0.02",257 ± 52 J/K/mol
same,apparent molar heat capacity,"318.15 K, m1 = 0.05",255.7 ± 21 J/K/mol
same,apparent molar heat capacity,"318.15 K, m1 = 0.1",256.3 ± 11 J/K/mol
same,apparent molar heat capacity,"318.15 K, m1 = 0.2501",255.4 ± 4.9 J/K/mol
same,apparent molar heat capacity,"318.15 K, m1 = 0.5002",254.8 ± 3.1 J/K/mol
same,apparent molar heat capacity,"318.15 K, m1 = 1.001",252.98 ± 2.3 J/K/mol
same,apparent molar heat capacity,"318.15 K, m1 = 2",250.33 ± 1.9 J/K/mol
same,apparent molar heat capacity,"318.15 K, m1 = 3.003",245.4 ± 1.8 J/K/mol
same,apparent molar heat capacity,"318.15 K, m1 = 4.999",244.12 ± 1.6 J/K/mol
same,mass density,"318.15 K, m1 = 0.02",990.73 ± 0.18 kg/m3
same,mass density,"318.15 K, m1 = 0.05",991.32 ± 0.18 kg/m3
same,mass density,"318.15 K, m1 = 0.1",992.37 ± 0.18 kg/m3
same,mass density,"318.15 K, m1 = 0.2501",995.42 ± 0.17 kg/m3
